The values below come from US8138356B2, “Chemical inhibitors of inhibitors of differentiation” (Angiogeney, Inc., priority 2008, dated 2012).

Structures are written as SMILES.

One assay deals with DU145 cells. The assay can be described thus: Cell survival/morphology by microscopy, DU145 prostate cancer cells. The assay is classed as cell-based, human. As to conditions: concentration of 1 um (FIG. 6). Here is the method:
Prostate cancer cell lines DU145 and PC3 (in 10% BCS) were obtained from American Type Culture Collection (Rockville, Md.). The cells were cultured in Ham's F12 (Gibco, Carlsbad, Calif.) medium containing 10% BCS (Hyclone, Logan, Utah) and appropriate antibiotics (pen/strep, fungizaone, and gentamycin (Invitrogen Inc., Carlsbad, Calif.). All cells were cultured at 37° C. in a fully humidified atmosphere containing 5% CO2.
At 50% confluence, the cells were treated with either 100 μM DMSO, 1000 mOsmol of urea+NaCL, 1 μM N-[3-(1,3-benzodioxol-5-yl)-3-(2-methoxyphenyl)propyl]-N-benzylpropanamide, 10 μM N-[3-(1,3-benzodioxol-5-yl)-3-(2-methoxyphenyl)propyl]-N-benzylpropanamide, and 100 μM N-[3-(1,3-benzodioxol-5-yl)-3-(2-methoxyphenyl)propyl]-N-benzylpropanamide, 1 μM N′-(4-isopropylphenyl)-1-benzothiophene-2-carbohydrazide, 10 μM N′-(4-isopropylphenyl)-1-benzothiophene-2-carbohydrazide, or 100 μM N′-(4-isopropylphenyl)-1-benzothiophene-2-carbohydrazide. The cell morphology and growth was monitored daily for 1 week by microscopy for changes in morphology or cell death. Apoptosis was determined by measuring caspase 3 and caspase 7 activities using the Caspase-Glo 3/7 Assay system from Promega (Madison, Wis.).

In another assay the target is T1, Id1-E47 interaction (Homo sapiens, UniProt P41134).
T1 sequence (P41134 1-155): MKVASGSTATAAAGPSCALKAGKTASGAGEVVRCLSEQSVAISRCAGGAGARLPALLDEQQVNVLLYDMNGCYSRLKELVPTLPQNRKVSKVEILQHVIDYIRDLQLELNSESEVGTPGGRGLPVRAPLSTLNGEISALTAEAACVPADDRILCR
The assay can be described thus: Gel shift assay: E47 binding to MCK E-box oligonucleotide in the presence of Id1. The assay is classed as biochemical. Here is the method:
Gel shift assays were performed using the 376 small molecules identified in the in silico drug screen and peptide synthesis. The identified compounds were then dissolved in 5% DMSO to a concentration of 100 μm and reacted in binding mixtures that contained E47, Id1 and Mck. As controls, recombinant human E47 was used in a standard binding reaction that contained ^32P labeled MCK double stranded oligonucleotides containing consensus E-Box response element (MCK-5′ TTGATCCCCCCAACACCTGCTGCCTGAAGCT (SEQ ID NO. 1)) and 100 ng of Id1 was added to a standard binding reaction using E47 and p32 labeled MCK. After 30 minutes of incubation, the reaction mixtures were resolved on a 5% non-denaturing polyacrylamide gel and autoradiographed.
In general terms: In EMSA bound probe runs differently from free probe, usually more slowly.

For `CC(C)c1ccc(NNC(=O)c2cc3ccccc3s2)cc1` [N′-(4-isopropylphenyl)-1-benzothiophene-2-carbohydrazide], in the assay on DU145 cells, the “survival of DU145 cells” value is given as “able to induce cell death”. In addition, on Id1-E47 interaction, the “dose dependence of effect in the gel shift assay” value is recorded as “dose-proportionality”. Also, the “anti-Id activity in the gel shift assay (shifted band of bound E47-MCK in the presence of Id1)” value on Id1-E47 interaction (compound 100 μm in 5% DMSO, E47, Id1 and MCK, 30 minutes) is recorded as “restore the binding between E47-MCK in the presence of Id1”.
